{
  "source": "patent US20240016784A1",
  "about": "“Y BOX BINDING PROTEIN 1 INHIBITORS” (Oregon Health & Science University, priority 2020, published 2024)",
  "key": {"[1]": {"target": "T1, TMSB4X (Homo sapiens, UniProt P62328)", "T1 construct": "endogenous in cells; host or cells: OVCAR8", "T1 sequence (P62328 whole entry)": "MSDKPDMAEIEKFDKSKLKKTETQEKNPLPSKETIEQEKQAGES", "assay": "Cellular Thermal Shift Assay (CETSA) in OVCAR8 cells", "assay_type": "binding", "settings": "SU056 2.5 μM, 1.5 h, read-out: increase in thermal stability (Tm shift) of TMSB4X", "procedure": "(§1) The cellular thermal shift assay (CETSA) is based on the principle of protein-ligand interactions causing a shift in protein thermal stability (Savitski et al., 2014). When a protein interacts with ligand, its thermal stability increases, and this principle allows identification of which protein targets that are engaged by small molecules or drug candidates. We used this assay to identify protein targets of SU056. OVCAR8 cells were treated with SU056 (2.5 μM) for 1.5 h, and protein lysates were analyzed for a thermal shift. The heat maps represent the thermal stability of 804 soluble proteins in the presence and absence of SU056 compare with 37° C. (FIG. 3A).\n(§2) Cellular Thermal Shift Assay (CETSA): The assay was performed as previously described (Savitski et al., 2014). Briefly, OVCAR8 cells were treated with vehicle (DMSO) or SU056 (2.5 μM) at 70-80% confluency for 1.5 h. Cells were harvested and washed with 1×PBS twice. Cells were pelleted and resuspended in PBS. 10 different PCR tubes with 1×10^6 cells/tube (in 100 μL PBS) were prepared for both the groups. Tubes were exposed to respective temperatures (37, 41, 44, 47, 50, 53, 56, 59, 63, 67° C.) for 3 min using a thermal cycler (Bio-Rad, CA, USA) followed by 2 min incubation at room temperature."}, "[2]": {"target": "T2, PSMB2 (Homo sapiens, UniProt P49721)", "T2 construct": "endogenous in cells; host or cells: OVCAR8", "assay": "Cellular Thermal Shift Assay (CETSA) in OVCAR8 cells", "assay_type": "binding", "settings": "SU056 2.5 μM, 1.5 h, read-out: increase in thermal stability (Tm shift) of PSMB2", "procedure": "as §1, §2"}, "[3]": {"target": "T3, CALM3 (Homo sapiens, UniProt P0DP25)", "T3 construct": "endogenous in cells; host or cells: OVCAR8", "assay": "Cellular Thermal Shift Assay (CETSA) in OVCAR8 cells", "assay_type": "binding", "settings": "SU056 2.5 μM, 1.5 h, read-out: increase in thermal stability (Tm shift) of CALM3", "procedure": "as §1, §2"}, "[4]": {"target": "T4, SUMO2 (Homo sapiens, UniProt P61956)", "T4 construct": "endogenous in cells; host or cells: OVCAR8", "T4 sequence (P61956 1-93 limits assumed)": "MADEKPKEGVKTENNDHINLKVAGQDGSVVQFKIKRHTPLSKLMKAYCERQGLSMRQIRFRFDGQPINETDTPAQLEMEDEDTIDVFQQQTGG", "assay": "Cellular Thermal Shift Assay (CETSA) in OVCAR8 cells", "assay_type": "binding", "settings": "SU056 2.5 μM, 1.5 h, read-out: increase in thermal stability (Tm shift) of SUMO2", "procedure": "as §1, §2"}, "[5]": {"test_system": "Multidrug resistance 1 (MDR1, ABC pump mediated efflux)", "assay": "Multidrug Resistance Assay (fluorometric MDR assay)", "assay_type": "cell-based", "settings": "2.5 μM for 12 h; six different OC cell lines", "procedure": "Out of six targets identified, we selected proteins whose thermal shift is above 5° in the presence of SU056 for further study of protein expression after treatment. […] To study the in vivo effects of SU056 treatment, we analyzed ID8 tumor xenograft samples via immunohistochemistry (IHC). […] To identify the broader effects of SU056 on YB-1 and its downstream protein/activity in different ovarian cancer cell lines, we selected six different cell lines and treated them with SU056 (2.5 μM) for 12 h. Cells were analyzed for YB-1 and CD44 expression and Multidrug resistance 1 (MDR1, ABC pump mediated efflux). […] Finally, we tested the time kinetics and dose-dependent effects of SU056 on YB-1 expression. OVCAR4, OVCAR8, and SKOV3 cells were treated with SU056 (1, 2.5, and 5 μM) for 3, 6, 12, and 24 h and YB-1 expression was measured using YB-1 ELISA. […] 5 μM treatment for 24 h inhibited YB-1 completely (100%) in all three OC cells (FIG. 4E). […]\nFIGS. 4A-4E: SU056 inhibits YB-1. […] FIG. 4C) Respective OC cells were treated with 2.5 μM SU056 for 12 h and YB-1 & CD44 expression and multidrug resistance activity was measured as described in the ‘method’ section. The % inhibition was calculated and compared to the control for the respective cell line. […]"}, "[6]": {"assay": "Tolerability of SU056 at increasing concentrations", "assay_type": "in vivo", "settings": "for death: different concentration; for tolerability: increasing concentrations", "description": "FIGS. 15A-15E. […] SU056 treatment at increasing concentrations dose not challenge the dietary behavior as reflected by change in body weight FIG. 15A) Mice and FIG. 15B) Rat. […] Liver microsomes were used for the purpose of metabolic profiling."}, "[7]": {"test_system": "ovarian cancer cells", "assay": "Apoptotic cell death assay (Annexin-FITC)", "assay_type": "cell-based", "settings": "24 h treatment; Annexin-FITC staining", "procedure": "To determine whether proliferation inhibition was the dominant factor driving the reduction in OC viability seen with AzP treatment, we used propidium iodide and annexin-FITC stains with flow cytometry to measure the distribution of cell cycle phases after treatment. […] Furthermore, in the Boyden chamber assay for cell migration, SU093 inhibited cell migration by 40-46% (1 μM, P<0.05) in different OC cell lines.\nApoptotic cell death assay: Cells were plated and treated as described in cell cycle analysis assay above. Treated cells were incubated for 24 h and both live and dead cells were collected. Cells were stained with Annexin V and PI using FITC Annexin V apoptosis detection kit (BD Pharmingen, San Jose, CA) by following the manufacturer's protocol. Guava® easyCyte™ Flow Cytometer was used to analyze the stained cells.\nFIG. 1A) Lead optimization of SU093 to obtain SU056. FIG. 1B) IC50 values of SU093 and SU056 on various ovarian cancer cells. Clonogenic survival of OC cells treated with SU093 or SU056. […] FIG. 1C) Representative colony formation from respective wells. FIG. 1D) Number of colonies formed after SU093 and SU056 treatment. […] FIG. 1F) Cell cycle distribution of propidium iodide (PI)-stained OVCAR8, SKOV3, and ID8 cells. […] FIG. 1G) Effects of SU093 and SU056 on apoptotic cell death analyzed by Annexin-FITC staining. […] FIG. 1H) Cell migration assay."}},
  "data": [
    {"molecule": "O=C1OCC2=C1C(c1cccc(F)c1)c1cc3c(cc1N2CCO)OCO3", "note": "(stereo not shown) [SU056, 9-(3-fluorophenyl)-5-(2-hydroxyethyl)-6,9-dihydro-[1,3]dioxolo[4,5-g]furo[3,4-b]quinolin-8(5H)-one]", "values": [
      {"measurement": "ΔTm at 2.5 µM", "setting": "[1]", "value": "4.43 ± 1.31", "unit": "°C"},
      {"measurement": "ΔTm at 2.5 µM", "setting": "[2]", "value": "5.36 ± 0.76", "unit": "°C"},
      {"measurement": "ΔTm at 2.5 µM", "setting": "[3]", "value": "4.03 ± 1.07", "unit": "°C"},
      {"measurement": "ΔTm at 2.5 µM", "setting": "[4]", "value": "5.4 ± 1.08", "unit": "°C"},
      {"measurement": "decrease in MDR expression", "setting": "[5]", "value": "41-63%"},
      {"measurement": "death", "setting": "[6]; mice", "value": "did not cause death"},
      {"measurement": "tolerability", "setting": "[6]; mice", "value": "well tolerated"},
      {"measurement": "death", "setting": "[6]; rat", "value": "did not cause death"},
      {"measurement": "tolerability", "setting": "[6]; rat", "value": "well tolerated"},
      {"measurement": "apoptotic cell death", "setting": "[7]", "value": "induce apoptotic cell death"}
    ]}
  ]
}
